Values quoted from earlier work in patent US20230416797A1, “MODULATING ANTIMICROBIAL PEPTIDE HALF-LIFE” (Syngulon SA., priority 2020, published 2023).

B1: Ent35-MccV: fusion bacteriocin: N-terminal glycine, Enterocin CRL35, a linker comprising three glycines, and a C-terminal Microcin V (protein)
chain: GKYYGNGVSCNKKGCSVDWGRAIGIIGNNSAANLATGGAAGWKSGGGASGRDIAMAIGTLSGQFVAGGIGAAAGGVAGGAIYDYASTHKPNPAMSPSGLGGTIKQKPEGIPSEAWNYAAGRLCNWSPNNLSDVCL
modifications: Hybrid bacteriocin Ent35-MccV
notes: fusion bacteriocin: N-terminal glycine, Enterocin CRL35, a linker comprising three glycines, and a C-terminal Microcin V

What was measured:
Candida species = settings: against Candida species; Shekh and Roy (2012)
[1] = tested on: fungal microbial organism; settings: from B. subtilis; Zuber et al. (1993), Shenin et al. (1995)
[2] = tested on: pathogenic Gram-positive and Gram-negative bacteria; settings: against pathogenic Gram-positive and Gram-negative bacteria; Acuña et al. (2012)

Row | Molecule | antifungal activities [1] | other results
1 | WLPPAGLLGRCGRWFRPWLLWLQ SGAQY KWLGNLFGLGPK (WLPPAGLLGRCGRWFRPWLLWLQSGAQYKWLGNLFGLGPK; listed as Enterococcus faecalis) [SEQ ID NO: 1, an Enterococcus faecalis peptide] | – | neutralizing activity (Candida species): neutralizing activity
2 | aurin B1 | antifungal activities | –
3 | botrycidin AJ1316 | antifungal activities | –
4 | B1 | – | antimicrobial activity [2]: antimicrobial activity
